Experimental data as given in ChEMBL document CHEMBL4138232, “O2-(2,4-dinitrophenyl)diazeniumdiolates derivatives: Design, synthesis, cytotoxic evaluation and reversing MDR in MCF-7/ADR cells” (Eur J Med Chem, 2018).
pIC50: −log10 of the molar value.

Tested on: HCT-116
Experiment: Cytotoxicity against human HCT116 cells overexpressing GST-Pi assessed as inhibition of cell viability at 10 uM after 48 hrs by MTT assay relative to control
Assay type: functional
Conditions: HCT-116, 48 h
Work on `CC(=O)N1N=C(c2cccc(Oc3cc(O/N=[N+](\[O-])N4CCCCC4)c([N+](=O)[O-])cc3[N+](=O)[O-])c2)CC1c1ccc(N(C)C)cc1` (centres undefined) yielded an inhibition at 10 µM of 81.3%. `CCCCOc1ccc(/C=C/C(=O)c2cccc(Oc3cc(O/N=[N+](\[O-])N4CCOCC4)c([N+](=O)[O-])cc3[N+](=O)[O-])c2)cc1OC` showed an inhibition at 10 µM of 70.2%. `CCCCCCOc1ccc(/C=C/C(=O)c2cccc(Oc3cc(O/N=[N+](\[O-])N4CCCCC4)c([N+](=O)[O-])cc3[N+](=O)[O-])c2)cc1OC` showed an inhibition at 10 µM of 16.1%. Molecule `CCCCOc1ccc(C2CC(c3cccc(Oc4cc(O/N=[N+](\[O-])N5CCCCC5)c([N+](=O)[O-])cc4[N+](=O)[O-])c3)=NN2C(C)=O)cc1OC` (centres undefined) has an inhibition at 10 µM of 72.9%. For `CCCCCOc1ccc(/C=C/C(=O)c2cccc(Oc3cc(O/N=[N+](\[O-])N4CCCCC4)c([N+](=O)[O-])cc3[N+](=O)[O-])c2)cc1OC`, the inhibition at 10 µM was 33%. With `COc1cc(/C=C/C(=O)c2cccc(Oc3cc(O/N=[N+](\[O-])N4CCOCC4)c([N+](=O)[O-])cc3[N+](=O)[O-])c2)cc(OC)c1OC` the inhibition at 10 µM was 77.6%.

Tested on: not listed separately
Experiment: Selectivity ratio of IC50 for human A549 cells to IC50 for human MDA-MB-231 cells
Assay type: functional
Conditions: not given
With `CC(=O)N1N=C(c2cccc(Oc3cc(O/N=[N+](\[O-])N4CCCCC4)c([N+](=O)[O-])cc3[N+](=O)[O-])c2)CC1c1ccc(N(C)C)cc1` (centres undefined) the “Ratio IC50” value was 1.4. For `CCCCOc1ccc(C2CC(c3cccc(Oc4cc(O/N=[N+](\[O-])N5CCCCC5)c([N+](=O)[O-])cc4[N+](=O)[O-])c3)=NN2C(C)=O)cc1OC` (centres undefined), the “Ratio IC50” value was 2.1. In the case of `COc1cc(/C=C/C(=O)c2cccc(Oc3cc(O/N=[N+](\[O-])N4CCOCC4)c([N+](=O)[O-])cc3[N+](=O)[O-])c2)cc(OC)c1OC`, the “Ratio IC50” value was 1.7.

Tested on: MDA-MB-231
Experiment: Antiproliferative activity against human MDA-MB-231 cells after 48 hrs by MTT assay relative to control
Assay type: functional, cell-based
Conditions: MDA-MB-231, 48 h
`CC(=O)N1N=C(c2cccc(Oc3cc(O/N=[N+](\[O-])N4CCCCC4)c([N+](=O)[O-])cc3[N+](=O)[O-])c2)CC1c1ccc(N(C)C)cc1` (centres undefined) gave a pIC50 of 5.28. In the case of `CCCCOc1ccc(C2CC(c3cccc(Oc4cc(O/N=[N+](\[O-])N5CCCCC5)c([N+](=O)[O-])cc4[N+](=O)[O-])c3)=NN2C(C)=O)cc1OC` (centres undefined), the pIC50 was 5.49. `COc1cc(/C=C/C(=O)c2cccc(Oc3cc(O/N=[N+](\[O-])N4CCOCC4)c([N+](=O)[O-])cc3[N+](=O)[O-])c2)cc(OC)c1OC` gave a pIC50 of 5.93.

Tested on: MCF7
Experiment: Cytotoxicity against ADR-sensitive human MCF7 cells assessed as inhibition of cell viability after 48 hrs by MTT assay
Assay type: cell-based
Conditions: MCF7, 48 h
Work on `CC(=O)N1N=C(c2cccc(Oc3cc(O/N=[N+](\[O-])N4CCCCC4)c([N+](=O)[O-])cc3[N+](=O)[O-])c2)CC1c1ccc(N(C)C)cc1` (centres undefined) yielded a pIC50 of 4.69. Work on `COc1cc(/C=C/C(=O)c2cccc(Oc3cc(O/N=[N+](\[O-])N4CCOCC4)c([N+](=O)[O-])cc3[N+](=O)[O-])c2)cc(OC)c1OC` yielded a pIC50 of 4.68.

Organism: Homo sapiens
Experiment: Inhibition of MDR in human MCF7/ADR cells assessed as potentiation of adriamycin-induced antiproliferative activity by measuring fold reduction in adriamycin IC50 at 10 uM after 48 hrs by MTT assay
Assay type: cell-based
Conditions: not given
With `CC(=O)N1N=C(c2cccc(Oc3cc(O/N=[N+](\[O-])N4CCCCC4)c([N+](=O)[O-])cc3[N+](=O)[O-])c2)CC1c1ccc(N(C)C)cc1` (centres undefined) the fold change (FC) was 26.6. Molecule `COc1cc(/C=C/C(=O)c2cccc(Oc3cc(O/N=[N+](\[O-])N4CCOCC4)c([N+](=O)[O-])cc3[N+](=O)[O-])c2)cc(OC)c1OC` has a fold change (FC) of 72.3.

Tested on: MCF-10A
Experiment: Antiproliferative activity against human MCF10A cells after 48 hrs by MTT assay relative to control
Assay type: cell-based
Conditions: not given
Work on `CC(=O)N1N=C(c2cccc(Oc3cc(O/N=[N+](\[O-])N4CCCCC4)c([N+](=O)[O-])cc3[N+](=O)[O-])c2)CC1c1ccc(N(C)C)cc1` (centres undefined) yielded a pIC50 of 4.02. Work on `CCCCOc1ccc(C2CC(c3cccc(Oc4cc(O/N=[N+](\[O-])N5CCCCC5)c([N+](=O)[O-])cc4[N+](=O)[O-])c3)=NN2C(C)=O)cc1OC` (centres undefined) yielded a pIC50 of 4.10. `COc1cc(/C=C/C(=O)c2cccc(Oc3cc(O/N=[N+](\[O-])N4CCOCC4)c([N+](=O)[O-])cc3[N+](=O)[O-])c2)cc(OC)c1OC` showed a pIC50 of 4.86.

Molecular target: T1, Glutathione S-transferase P (Homo sapiens, UniProt P09211)
T1 sequence (P09211 whole entry): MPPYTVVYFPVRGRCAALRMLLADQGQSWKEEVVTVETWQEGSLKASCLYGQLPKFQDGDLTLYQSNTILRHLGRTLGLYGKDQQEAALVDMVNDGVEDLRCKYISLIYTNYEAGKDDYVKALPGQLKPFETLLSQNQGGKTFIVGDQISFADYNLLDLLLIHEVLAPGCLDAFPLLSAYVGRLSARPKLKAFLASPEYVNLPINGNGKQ
Experiment: Prodrug activation in human HCT116 cells assessed as GST-Pi-mediated NO release at 5 uM after 24 hrs by nitrate reductase assay
Assay type: cell-based
Conditions: not given
With `CC(=O)N1N=C(c2cccc(Oc3cc(O/N=[N+](\[O-])N4CCCCC4)c([N+](=O)[O-])cc3[N+](=O)[O-])c2)CC1c1ccc(N(C)C)cc1` (centres undefined) the Drug metabolism was “Metabolite_Detected”.

Tested on: U2OS
Experiment: Antiproliferative activity against human U2OS cells after 48 hrs by MTT assay relative to control
Assay type: functional, cell-based
Conditions: not given
Molecule `CC(=O)N1N=C(c2cccc(Oc3cc(O/N=[N+](\[O-])N4CCCCC4)c([N+](=O)[O-])cc3[N+](=O)[O-])c2)CC1c1ccc(N(C)C)cc1` (centres undefined) has a pIC50 of 5.20. `CCCCOc1ccc(C2CC(c3cccc(Oc4cc(O/N=[N+](\[O-])N5CCCCC5)c([N+](=O)[O-])cc4[N+](=O)[O-])c3)=NN2C(C)=O)cc1OC` (centres undefined) gave a pIC50 of 5.45. `COc1cc(/C=C/C(=O)c2cccc(Oc3cc(O/N=[N+](\[O-])N4CCOCC4)c([N+](=O)[O-])cc3[N+](=O)[O-])c2)cc(OC)c1OC` showed a pIC50 of 5.29.

Tested on: HCT-116
Experiment: Antiproliferative activity against human HCT116 cells after 48 hrs by MTT assay relative to control
Assay type: functional, cell-based
Conditions: HCT-116, 48 h
In the case of `CC(=O)N1N=C(c2cccc(Oc3cc(O/N=[N+](\[O-])N4CCCCC4)c([N+](=O)[O-])cc3[N+](=O)[O-])c2)CC1c1ccc(N(C)C)cc1` (centres undefined), the pIC50 was 5.46. Work on `CCCCOc1ccc(C2CC(c3cccc(Oc4cc(O/N=[N+](\[O-])N5CCCCC5)c([N+](=O)[O-])cc4[N+](=O)[O-])c3)=NN2C(C)=O)cc1OC` (centres undefined) yielded a pIC50 of 5.11. Work on `COc1cc(/C=C/C(=O)c2cccc(Oc3cc(O/N=[N+](\[O-])N4CCOCC4)c([N+](=O)[O-])cc3[N+](=O)[O-])c2)cc(OC)c1OC` yielded a pIC50 of 5.53.

Tested on: not listed separately
Experiment: Selectivity ratio of IC50 for human MCF10A cells to IC50 for human MDA-MB-231 cells
Assay type: toxicity
Conditions: MCF10A cells versus MDA-MB-231 cells, read-out: Ratio IC50
With `CC(=O)N1N=C(c2cccc(Oc3cc(O/N=[N+](\[O-])N4CCCCC4)c([N+](=O)[O-])cc3[N+](=O)[O-])c2)CC1c1ccc(N(C)C)cc1` (centres undefined) the selectivity ratio was 18. `CCCCOc1ccc(C2CC(c3cccc(Oc4cc(O/N=[N+](\[O-])N5CCCCC5)c([N+](=O)[O-])cc4[N+](=O)[O-])c3)=NN2C(C)=O)cc1OC` (centres undefined) showed a selectivity ratio of 24.4. `COc1cc(/C=C/C(=O)c2cccc(Oc3cc(O/N=[N+](\[O-])N4CCOCC4)c([N+](=O)[O-])cc3[N+](=O)[O-])c2)cc(OC)c1OC` showed a selectivity ratio of 11.7.

Tested on: not listed separately
Experiment: Selectivity ratio of IC50 for human U2OS cells to IC50 for human MDA-MB-231 cells
Assay type: functional
Conditions: not given
For `CC(=O)N1N=C(c2cccc(Oc3cc(O/N=[N+](\[O-])N4CCCCC4)c([N+](=O)[O-])cc3[N+](=O)[O-])c2)CC1c1ccc(N(C)C)cc1` (centres undefined), the “Ratio IC50” value was 1.2. In the case of `CCCCOc1ccc(C2CC(c3cccc(Oc4cc(O/N=[N+](\[O-])N5CCCCC5)c([N+](=O)[O-])cc4[N+](=O)[O-])c3)=NN2C(C)=O)cc1OC` (centres undefined), the “Ratio IC50” value was 1.1. With `COc1cc(/C=C/C(=O)c2cccc(Oc3cc(O/N=[N+](\[O-])N4CCOCC4)c([N+](=O)[O-])cc3[N+](=O)[O-])c2)cc(OC)c1OC` the “Ratio IC50” value was 4.4.

Molecular target: T1, Glutathione S-transferase P
Experiment: Prodrug activation in human HCT116 cells assessed as GST-Pi-mediated NO release at 5 uM after 24 hrs in presence of GST-Pi inhibitor etacrynic acid by nitrate reductase assay
Assay type: cell-based
Conditions: not given
With `CC(=O)N1N=C(c2cccc(Oc3cc(O/N=[N+](\[O-])N4CCCCC4)c([N+](=O)[O-])cc3[N+](=O)[O-])c2)CC1c1ccc(N(C)C)cc1` (centres undefined) the Drug metabolism was “Metabolite_Notdetected”. With `COc1cc(/C=C/C(=O)c2cccc(Oc3cc(O/N=[N+](\[O-])N4CCOCC4)c([N+](=O)[O-])cc3[N+](=O)[O-])c2)cc(OC)c1OC` the Drug metabolism was “Metabolite_Notdetected”.

Tested on: not listed separately
Experiment: Cytotoxicity against ADR-sensitive human MCF7 cells assessed as inhibition of cell viability at 10 uM after 48 hrs by MTT assay relative to control
Assay type: cell-based
Conditions: read-out: INH
Molecule `CC(=O)N1N=C(c2cccc(Oc3cc(O/N=[N+](\[O-])N4CCCCC4)c([N+](=O)[O-])cc3[N+](=O)[O-])c2)CC1c1ccc(N(C)C)cc1` (centres undefined) has a cytotoxicity at 48 h, 10 µM of 13.4%. `COc1cc(/C=C/C(=O)c2cccc(Oc3cc(O/N=[N+](\[O-])N4CCOCC4)c([N+](=O)[O-])cc3[N+](=O)[O-])c2)cc(OC)c1OC` showed a cytotoxicity at 48 h, 10 µM of 21.5%.

Tested on: not listed separately
Experiment: Selectivity ratio of IC50 for human HCT116 cells to IC50 for human MDA-MB-231 cells
Assay type: functional
Conditions: not given
With `CC(=O)N1N=C(c2cccc(Oc3cc(O/N=[N+](\[O-])N4CCCCC4)c([N+](=O)[O-])cc3[N+](=O)[O-])c2)CC1c1ccc(N(C)C)cc1` (centres undefined) the “Ratio IC50” value was 0.6. In the case of `CCCCOc1ccc(C2CC(c3cccc(Oc4cc(O/N=[N+](\[O-])N5CCCCC5)c([N+](=O)[O-])cc4[N+](=O)[O-])c3)=NN2C(C)=O)cc1OC` (centres undefined), the “Ratio IC50” value was 2.4. For `COc1cc(/C=C/C(=O)c2cccc(Oc3cc(O/N=[N+](\[O-])N4CCOCC4)c([N+](=O)[O-])cc3[N+](=O)[O-])c2)cc(OC)c1OC`, the “Ratio IC50” value was 2.4.

Tested on: A549
Experiment: Antiproliferative activity against human A549 cells after 48 hrs by MTT assay relative to control
Assay type: functional, cell-based
Conditions: A549, 48 h
Molecule `CC(=O)N1N=C(c2cccc(Oc3cc(O/N=[N+](\[O-])N4CCCCC4)c([N+](=O)[O-])cc3[N+](=O)[O-])c2)CC1c1ccc(N(C)C)cc1` (centres undefined) has a pIC50 of 5.12. Work on `CCCCOc1ccc(C2CC(c3cccc(Oc4cc(O/N=[N+](\[O-])N5CCCCC5)c([N+](=O)[O-])cc4[N+](=O)[O-])c3)=NN2C(C)=O)cc1OC` (centres undefined) yielded a pIC50 of 5.16. With `COc1cc(/C=C/C(=O)c2cccc(Oc3cc(O/N=[N+](\[O-])N4CCOCC4)c([N+](=O)[O-])cc3[N+](=O)[O-])c2)cc(OC)c1OC` the pIC50 was 5.71.

Molecular target: T1, Glutathione S-transferase P
Experiment: Prodrug activation in human HCT116 cells assessed as GST-Pi-mediated NO release at 5 uM after 24 hrs in presence of NO scavenger carboxy-PTIO by nitrate reductase assay
Assay type: cell-based
Conditions: not given
For `CC(=O)N1N=C(c2cccc(Oc3cc(O/N=[N+](\[O-])N4CCCCC4)c([N+](=O)[O-])cc3[N+](=O)[O-])c2)CC1c1ccc(N(C)C)cc1` (centres undefined), the Drug metabolism was “Metabolite_Notdetected”. For `COc1cc(/C=C/C(=O)c2cccc(Oc3cc(O/N=[N+](\[O-])N4CCOCC4)c([N+](=O)[O-])cc3[N+](=O)[O-])c2)cc(OC)c1OC`, the Drug metabolism was “Metabolite_Notdetected”.
